The values below come from patent US7811997B2, “Composition containing total triterpenoid sapogenins extracted from bamboo, and the preparation method and use thereof” (priority 2002, dated 2010).

The structures appear in SMILES notation. Like-named read-outs stand apart in the source and are kept apart here.

For assay [1] the following is noted: compounds from bamboo shoot sheath; Sakai 1999; cited from earlier work.
Assay [2] deals with Hela (human cervical tumor). As to the kind of experiment: MTT proliferation inhibition, Hela cells. It is filed as cell-based. Conditions: Homo sapiens, HeLa, read-out: Inhibitory rate (%). An excerpt:
(§1) The Silica Gel Column Chromatography and Countercurrent Chromatography preparation techniques were used to obtain Friedelin monomer extracted from EZR2002 for the sake of evaluating its anti-tumor activity further. The purity of this monomer determined by GC-MS analysis was 90.5%.
(§2) A375 (human malanoma), L929 (mouse lung epithelial tumor), Hela (human cervical tumor) and THP-1 (human macrophage tumor) cell lines were used for active filtration test in this experiment. Among these cell lines, A375, L929 and Hela were adherent cells while THP-1 was a kind of suspended cell.
(§3) All cells were maintained in the RPMI-1640 culture medium supplemented with 10% fetal calf serum, penicillin (100 U/mL), streptomycin (100 μg/mL) and 0.2% NaHCO3. These supplements were dissolved in deionized water and 0.22 μm filtration membrane was used for filter sterilization. The fetal calf serum was inactivated 30 min at 56° C. prior to an experiment. Cells were cultured in a humidified incubator of 5% CO2 at 37° C.
(§4) A375, L929 and Hela cells in logarithmic growth phases were seeded at a cell density of approximately 5×10^4 cells/mL in 96 pore plates (100 μL/well). Furthermore, THP-1 cell was seeded at a cell density of approximately 1×10^5 cells/mL because it was smaller than others. Samples were added in suspended cells after culturing 4 h and in adherent cells after culturing 12 h. Friedelin was dissolved in DMSO in advance and then in the culture medium with the ultrasonic treatment, where the final concentration of the solvent in the culture medium was <0.1% (v/v). Sample was added for 7.5, 15, 30, 60, 120, 240, 480 and 960 μmol/L. Each level had four parallel pores and a negative control. The cells were incubated for 24 and 48 h and then 15 μL/well MTT solvent (5 mg/mL) was added.
(§5) The cells were incubated for 48 h, followed by centrifugation at 1500 rpm for 5 min. The supernatant was removed and 150 μL/well DMSO was added, followed by micro-vibrator shocking for 10 min and crystal dissolving completely. The absorbance (OD value) was measured by enzyme-labeled meter at 492 nm. Furthermore, the inhibitory rate of cell proliferation and the IC50 value of friedelin were counted by using Bliss method.
(§6) The de-methyl-cantharidin was taken as the positive control and the inhibitory rate of A375, L929 and Hela cells were measured by adding de-methyl-cantharidin (120 μmol/L) for 24 and 48 h (Table 8). Furthermore, the corresponding data of Friedelin were counted.

In assay [3] the test system is L929 (mouse lung epithelial tumor). As to the kind of experiment: MTT proliferation inhibition, L929 cells. The assay is classed as cell-based. Conditions: Mus musculus, read-out: Inhibitory rate (%).
From the text: as §1, §2, §3, §4, §5, §6

For assay [4], the system named is A375 (human malanoma). As to the kind of experiment: MTT proliferation inhibition, A375 cells. It is filed as cell-based. The settings on record: Homo sapiens, read-out: Inhibitory rate (%).
From the text: as §1, §2, §3, §4, §5, §6

Assay [5] concerns P388 mouse leukemia cells. As to the kind of experiment: Growth inhibition of P388 cells (MTT reduction method, 48 h). The assay is classed as cell-based. The protocol:
[…] growth […] The effect time was 48 h and 72 h, respectively.
(§7) 10^−5, 10^−6 and 10^−7 mol/L were determined as three critical levels. Invalid, weak effect and strong effect were determined as three evaluation indices.
(In general: Formazan colour is commonly taken as a measure of viable cells.)

Assay [6] concerns A549 human lung adenocarcinoma cells. As to the kind of experiment: Growth inhibition of A549 cells (SRB protein coloring method, 72 h). It is filed as cell-based. On the procedure:
Sulforhodamine B (SRB) protein staining method and microculture tetrozolium (MTT) reduction method were used to measure the growth inhibitory effects of tumor cells by EZR2002 with the test objects of P388 mouse leukemia cells and A549 human lung adenocarcinoma cells, respectively. The effect time was 48 h and 72 h, respectively.
as §7

Turning to `COc1cc(-c2cc(=O)c3c(O)cc(O)cc3o2)cc(OC)c1O` [tricin], in assay [1], the “anti-oxidative activity relative to that of α-tocopherol” value is about 10%.
For the molecule `O=C1OC(=O)C2C3CCC(O3)C12` (centres unmarked) [De-methyl-cantharidin, de-methyl-cantharidin, reference compound], the inhibition at 120 µM in assay [2] (24 h) was found to be 34.1%; in assay [2] (48 h), 43.7%; in assay [3] (L929, 24 h), 40.5%; in assay [3] (L929, 48 h), 34.4%; in assay [4] (A-375, 24 h), 38.6%; in assay [4] (A-375, 48 h), 50.4%.
With `O=C1c2c(O)cc(O)cc2O[C@H](c2ccc(O)c(O)c2)[C@H]1O` [taxifolin], the “anti-oxidative activity relative to that of α-tocopherol” value in assay [1] is reported as about 1%.
For `CC[C@]1(O)C[C@H]2CN(CCc3c([nH]c4ccccc34)[C@@](C(=O)OC)(c3cc4c(cc3OC)N(C=O)[C@H]3[C@@](O)(C(=O)OC)[C@H](OC(C)=O)[C@]5(CC)C=CCN6CC[C@]43[C@@H]65)C2)C1` [Vincristin], the figures for the Evaluation entry in assay [5] and in assay [6] were “Strong” and “Weak”, respectively. Moreover, the “Inhibition rate (%)” value in assay [5] (sample level 10^−4 mol/L) turned out to be 93.1%; in assay [5] (sample level 10^−5 mol/L) it was 94.3%; in assay [5] (sample level 10^−6 mol/L), 94.8%; in assay [5] (sample level 10^−7 mol/L), 94.7%; in assay [5] (sample level 10^−8 mol/L), 93.2%; in assay [6] (sample level 10^−4 mol/L), 71.3%. For the same molecule, the “Inhibition rate (%)” value in assay [6] (sample level 10^−5 mol/L) worked out at 71.6%; in assay [6] (sample level 10^−6 mol/L), 66.5%; in assay [6] (sample level 10^−7 mol/L), 44.3%; in assay [6] (sample level 10^−8 mol/L), 9.6%.
